Columns and labels:
[1] = tested on: Trichostrongylus columbriformis; test: In vivo efficacy against T. colubriformis in infected gerbils; conditions: gerbils infected with T. colubriformis; single oral dose of 50 mg/kg by gavage; worm counts four days post-treatment; % mortality as compared to negative control
Experimental: In Vivo Evaluation of the Efficacy of Test Compounds Against T. colubriformis
In this evaluation, gerbils are infected with Trichostrongylus columbriformis infective larvae at a concentration of approximately 800 L3/mL. Larvae for gerbil infections are cultured from feces from sheep previously infected with T. colubriformis. One week post infection, test compounds are administered by gavage as a single oral dose of 50 mg/kg of body weight. For each group of 3 gerbils, 10 mg of test compound are dissolved in 2 mL of PEG 400:DMSO (1:2 v/v) and each animal is administered the test solution at a rate of 0.1 mL/10 g of body weight. […] All animals are observed daily for morbidity and mortality. Four days post-treatment, all animals are weighed and necropsied. Worm counts are conducted with the use of stereoscopes and counters.

C. elegans = test: Efficacy against nematodes (C. elegans motility rating); parameters: key: 0: no effect; 7: reduced movement in 24 h; 8: dead in 24 h; 9: dead in 4 h; conditions: dose 100 ppm, observations at 4 h and 24 h postimmersion
In short: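 Mixed-stage C. elegans (~50 per well, L1 to adult) in M9 buffer exposed to test compound at 100 ppm, 150 ppm or 200 μM final. Motility of larvae and adults scored under dissecting microscope at 4 h and 24 h.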

[2] = tested on: larvae of blowfly, Lucilia sericata; test: whole plant or invertebrate; conditions: dose rate of 20 ppm, Lucilia sericata larvae on treated filter paper with bovine serum; for % Mortality 24 h: assessed at 24 h; for % Mortality 48 h: assessed at 48 h
Experimental: Comparative Evaluation of the Efficacy of a 3-Aryl-4-hydroxyfuranone Compound Against Blowfly Larvae
In this evaluation, filter paper discs are treated with an acetone solution of test compound and allowed to dry. Bovine serum and newly emerged larvae of blowfly, Lucilia sericata, are added to the treated filter paper. Mortality is assessed at 24 h and 48 h. When more than one evaluation is performed, the data are averaged.

Row | SMILES | Mortality [1] [%] | Rating (C. elegans) | % Mortality 24 h [2] [%] | % Mortality 48 h [2] [%]
1 | O=C1OC(=Cc2ccc(Cl)cc2)C(O)=C1c1ccc(-c2ccc(Cl)cc2)cc1 (mixture of isomers) [listing 1 of 2 here] | 0.00 | 9 |  | 
2 | O=C1OC(=Cc2ccc(F)cc2)C(O)=C1c1cccc(C(F)(F)F)c1 (mixture of isomers) [R=H; R1=3-CF3—C6H4**; R2=4-F—C6H4] | 36.40 | 9 |  | 
3 | N#Cc1ccc(-c2ccc(C=C3OC(=O)C(c4ccc(F)cc4)=C3O)cc2)cc1 (mixture of isomers) [listing 1 of 2 here] | 31.80 | 9 |  | 
4 | O=C1OC(=Cc2ccc(OC(F)F)cc2)C(O)=C1c1ccc(OC(F)(F)F)cc1 (mixture of isomers) [R=H; R1=4-OCF3—C6H4**; R2=4-OCHF2—C6H4] | 44.20 | 9 |  | 
5 | N#Cc1cccc(C2=C(O)C(=Cc3ccc(F)cc3)OC2=O)c1 (mixture of isomers) [R=H; R1=3-CN—C6H4**; R2=4-F—C6H4] | 0.00 | 7 |  | 
6 | O=C1OC(=Cc2cccnc2)C(O)=C1c1ccc(OC(F)(F)F)cc1 (mixture of isomers) [R=H; R1=4-OCF3—C6H4**; R2=pyridine-3-yl] | 0.00 | 0 |  | 
7 | N#Cc1ccc(C=C2OC(=O)C(c3cccc(C#N)c3)=C2O)cc1 (mixture of isomers) [R=H; R1=3-CN—C6H4**; R2=4-CN—C6H4] | 25.50 | 9 |  | 
8 | O=C1O/C(=C\c2cc(C(F)(F)F)ccc2Cl)C(O)=C1c1ccc(-c2ccccc2)cc1 [R=H; R1=4-biphenyl; R2=2-Cl—5-CF3—C6H4] | 38.40 |  |  | 
9 | CCc1ccc(C2=C(O)C(=Cc3cc(C(F)(F)F)ccc3Cl)OC2=O)cc1 | 39.00 |  |  | 
10 | O=C1O/C(=C\c2cc(F)cc(C(F)(F)F)c2)C(O)=C1c1cccc(-c2ccccc2)c1 [R=H; R1=3-biphenyl; R2=3-F-5-CF3—C6H4] | 0.00 |  |  | 
11 | O=C1O/C(=C\c2ccc(Cl)cc2)C(O)=C1c1ccc(-c2ccccc2)c(F)c1 [R=H; R1=4-(3-F-biphenyl); R2=4-CI-C6H4] | 22.00 |  |  | 
12 | COc1ccccc1-c1ccc(C=C2OC(=O)C(c3cccc(Cl)c3)=C2O)cc1C | 0.00 |  |  | 
13 | O=C1OC(=Cc2cnccc2-c2cccc(Cl)c2)C(O)=C1c1ccc(OC(F)(F)F)cc1 (mixture of isomers) | 66.80 |  |  | 
14 | O=C1O/C(=C\c2cc(C(F)(F)F)ccc2F)C(O)=C1c1cccc(-c2ccccc2)c1 [R=H; R1=3-biphenyl; R2=2-F-5-CF3—C6H4] | 38.40 |  |  | 
15 | O=C1O/C(=C\c2ccc(-c3ccccc3F)cc2)C(O)=C1c1ccccc1F [R=H; R1=2-F—C6H4; R2=4-(2′F-biphenyl)] | 12.40 |  |  | 
16 | O=C1OC(=Cc2cnccc2-c2ccc(Cl)cc2)C(O)=C1c1ccc(OC(F)(F)F)cc1 (mixture of isomers) | 84.60 |  |  | 
17 | O=C1O/C(=C\c2ccccc2)C(O)=C1c1ccccc1C(F)(F)F [R=H; R1=2-CF3—C6H4; R2=C6H5] | 34.60 |  |  | 
18 | CCCOc1ccc(C=C2OC(=O)C(c3ccc(OC(F)(F)F)cc3)=C2O)cc1 (mixture of isomers) | 10.40 |  |  | 
19 | Cc1cc(/C=C2\OC(=O)C(c3cccc(Cl)c3)=C2O)ccc1-c1ccccc1C(F)(F)F | 11.20 |  |  | 
20 | O=C1OC(=Cc2cnccc2-c2ccc(Cl)s2)C(O)=C1c1ccc(OC(F)(F)F)cc1 (mixture of isomers) | 88.50 |  |  | 
21 | COc1cc(/C=C2\OC(=O)C(c3cccc(Cl)c3)=C2O)ccc1-c1ccccc1Cl | 0.00 |  |  | 
22 | O=C1O/C(=C\c2cccc(Cl)c2)C(O)=C1c1ccc(Cl)cc1 [R=H; R1=4-Cl—C6H4; R2=3-CI-C6H4] | 25.40 |  |  | 
23 | O=C1O/C(=C\c2ccc(-c3cccc(CO)c3)cc2)C(O)=C1c1cccc(CO)c1 |  |  | 0 | 0
24 | N#Cc1ccc(C2=C(O)C(=Cc3ccc(F)cc3)OC2=O)cc1 (mixture of isomers) [R=H, R1=4-CN—C6H4**, R2=4-F—C6H4] |  |  | 0 | 0
25 | N#Cc1cccc(C2=C(O)C(=Cc3ccc(C(F)(F)F)cc3)OC2=O)c1 (mixture of isomers) [R=H, R1=3-CN—C6H4**, R2=4-CF3—C6H4] |  |  | 0 | 0

Row | SMILES | Mortality [1] [%] | Rating (C. elegans) | % Mortality 24 h [2] [%] | % Mortality 48 h [2] [%]
26 | N#Cc1ccc(-c2ccc(/C=C3\OC(=O)C(c4ccc(Cl)cc4)=C3O)cc2)cc1 [R=H, R1=4-Cl—C6H4, R2=4-(4′-CN-biphenyl)] |  |  | 0 | 0
27 | O=C1OC(=Cc2ccc(-c3ccc(Cl)cc3)cc2)C(O)=C1c1ccc(F)cc1 (mixture of isomers) |  |  | 0 | 0
28 | O=C1OC(=Cc2ccc(C(F)(F)F)cc2)C(O)=C1c1ccc(-c2ccc(Cl)cc2)cc1 (mixture of isomers) |  |  | 0 | 0
29 | O=C1OC(=Cc2ccc(C(F)(F)F)cc2)C(O)=C1c1ccc(Cl)cc1 (mixture of isomers) [R=H, R1=4-Cl—C6H4**, R2=4-CF3—C6H4] |  |  | 100 | 100
30 | O=C1OC(=Cc2ccc(F)cc2)C(O)=C1c1cccc(C(F)(F)F)c1 (mixture of isomers) [R=H, R1=3-CF3—C6H4**, R2=4-F—C6H4] |  |  | 100 | 100
31 | N#Cc1ccc(-c2ccc(/C=C3\OC(=O)C(c4ccc(Cl)cc4)=C3O)cc2)cc1 [R=H, R1=4-Cl—C6H4*, R2=4-(4′-CN-biphenyl)] |  |  | 0 | 100
32 | Cc1ccc(C2=C(O)/C(=C/c3cccc(C(F)(F)F)c3Cl)OC2=O)cc1C | 36.50 |  |  | 
33 | O=C1OC(=Cc2ccc(Cl)cc2)C(O)=C1c1ccc(C(F)(F)F)cc1 (mixture of isomers) [R=H, R1=4-CF3—C6H4**, R2=4-Cl—C6H4] |  |  | 100 | 100
34 | O=C1OC(=Cc2ccc(C(F)(F)F)cc2)C(O)=C1c1ccc(C(F)(F)F)cc1 (mixture of isomers) [R=H, R1=4-CF3—C6H4**, R2=4-CF3—C6H4] |  |  | 100 | 100
35 | N#Cc1ccc(C2=C(O)/C(=C/c3ccc(-c4ccc(C#N)cc4)cc3)OC2=O)cc1 |  |  | 0 | 0
36 | CCOC(=O)N1CCN(c2ccc(/C=C3\OC(=O)C(c4cc(Cl)cc(Cl)c4)=C3O)cc2F)CC1 |  |  | 0 | 0
37 | N#Cc1ccc(C=C2OC(=O)C(c3cccc(C(F)(F)F)c3)=C2O)cc1 (mixture of isomers) [R=H, R1=3-CF3—C6H4**, R2=4-CN—C6H4] |  |  | 20 | 20
38 | O=C1OC(=Cc2cnccc2-c2ccc(OC(F)(F)F)cc2)C(O)=C1c1ccc(OC(F)(F)F)cc1 (mixture of isomers) | 82.60 |  |  | 
39 | Cc1cc(/C=C2\OC(=O)C(c3cccc(Cl)c3)=C2O)ccc1-c1ccccc1Cl | 16.90 |  |  | 
40 | N#Cc1ccc(C2=C(O)C(=Cc3ccc(-c4ccc(Cl)cc4)cc3)OC2=O)cc1 (mixture of isomers) |  |  | 0 | 100
41 | N#Cc1ccc(C=C2OC(=O)C(c3ccc(Cl)cc3)=C2O)cc1 (mixture of isomers) [R=H, R1=4-Cl—C6H4**, R2=4-CN—C6H4] |  |  | 0 | 90
42 | COC1=C(c2ccc(Cl)cc2)C(=O)OC1=Cc1ccc(C#N)cc1 (mixture of isomers) [R=CH3, R1=4-Cl—C6H4**, R2=4-CN—C6H4] |  |  | 0 | 0
43 | O=C1OC(=Cc2cccc(Cl)c2)C(O)=C1c1ccc(Cl)cc1 (mixture of isomers) [R=H, R1=4-Cl—C6H4**, R2=3-Cl—C6H4] |  |  | 0 | 0
44 | N#Cc1ccc(C2=C(O)C(=Cc3ccc(-c4ccc(C(F)(F)F)cc4)cc3)OC2=O)cc1 (mixture of isomers) |  |  | 0 | 25
45 | N#Cc1ccc(-c2ccc(C=C3OC(=O)C(c4ccc(F)cc4)=C3O)cc2)cc1 (mixture of isomers) [listing 2 of 2 here] |  |  | 0 | 0
46 | O=C1OC(=Cc2ccc(-c3ccccc3CO)cc2)C(O)=C1c1ccccc1CO |  |  | 0 | 0
47 | O=C1OC(=Cc2ccc(C(F)(F)F)cc2)C(O)=C1c1cccc(C(F)(F)F)c1 (mixture of isomers) [R=H, R1=3-CF3—C6H4**, R2=4-CF3—C6H4] |  |  | 100 | 100
48 | N#Cc1ccc(C=C2OC(=O)C(c3ccc(F)cc3)=C2O)cc1 (mixture of isomers) [R=H, R1=4-F—C6H4**, R2=4-CN—C6H4] |  |  | 0 | 0
49 | O=C1OC(=Cc2ccc(Cl)cc2)C(O)=C1c1ccc(-c2ccc(Cl)cc2)cc1 (mixture of isomers) [listing 2 of 2 here] |  |  | 0 | 0
50 | O=C1O/C(=C\c2ccc(N3CCN(c4ccccc4Cl)CC3)c(Cl)c2)C(O)=C1c1cc(Cl)cc(Cl)c1 |  |  | 0 | 0
